Source: patent publication US20250109134A1 (Ascentage Pharma (Suzhou) Co., Ltd., priority 2022, published 2025)

Legend:
Assay type in all cases: physicochemical
[1] = Polymorph screening (suspension, anti-solvent, gas-liquid diffusion, slow volatilization methods), resulting form by XRPD
Method: The sample was quickly centrifuged (6000 rpm, 5 min) to remove a supernatant. The resulting precipitate was subjected to vacuum drying (40° C., −0.1 MPa) for 20 h, followed by physical characterization.
The resulting precipitate was subjected to vacuum drying at 40° C. for 20 h, followed by physical characterization.
No clear solution was obtained, and the sample was still undissolved after 1 mL of solvent was added. Then, 500 μL of poor solvent (acetone, ACN, MeOH, EtOAc, THE, or […]) was added, and 40 mg of the sample was added to perform an experiment by a suspension method. All suspension samples were stirred at 50° C. for 2 days and quickly centrifuged (6000 rpm, 5 min) to remove a supernatant. The resulting solid was subjected to vacuum drying at 40° C. for 20 h, followed by physical characterization.
The compound of formula I was subjected to polymorph screening with DCM as a good solvent and with MeOH, EtOH, THE, or EA as an anti-solvent, and was dissolved in both DCM and MeOH systems. The suspension sample was stirred for 2 days and quickly centrifuged to remove a supernatant. The resulting precipitate was subjected to vacuum drying at 25° C. for 20 h, followed by physical characterization.
The resulting precipitate was subjected to vacuum drying at room temperature for 20 h, followed by physical characterization.
The resulting precipitate was subjected to vacuum drying for 20 h.
Sonication was performed for 1 min to obtain a clear solution, which was filtered through a 0.22 μm filter membrane and aliquoted into seven 8 mL glass flasks. An anti-solvent was added until precipitation occurred. The sample was stirred at room temperature for 1 day and quickly centrifuged. The resulting solid precipitate was subjected to vacuum drying.
Then, an anti-solvent was added until precipitation occurred, and the mixture was stirred at room temperature overnight and quickly centrifuged (6000 rpm, 6 min) to remove a supernatant. The resulting precipitate was subjected to vacuum drying for 20 h.
Then, the solution was added to a 20 mL glass flask containing 2 mL of an anti-solvent (shown in the following table), and the flask was tightly capped at room temperature and placed in a fume hood for diffusion. When precipitation occurred, the flask was taken out, and the resulting precipitate was subjected to vacuum drying for 20 h.
The flask placed in a fume hood at room temperature for diffusion. When precipitation occurred, the flask was taken out, and the resulting precipitate was subjected to vacuum drying for 20 h.
The mixture was stirred at 50° C. or room temperature for 6 days and quickly centrifuged (6000 rpm, […]) to remove a supernatant. The resulting precipitate was subjected to vacuum drying for 20 h.

[2] = Stability study, content and related substances (TRS, total impurity content) by HPLC
Method: In the present invention, the HPLC (high performance liquid chromatography) test parameters are set as follows:
Then, the sample flasks were opened to air (sealed with aluminum foil punctured with small holes) and placed in constant temperature and humidity cabinets at high temperature (60° C.), at room temperature and high humidity ([…]), at RT/75% RH, and at 40° C./75% RH for 30 days, respectively, […]

[3] = Dynamic vapor sorption (DVS) hygroscopicity test; conditions: summary of forms
Description: In the present invention, the DVS test parameters are set as follows: […]

[4] = solvent 1,4-Dixoane, suspension, 6 days

Compound: CC(C)N1Cc2cc(C(F)(F)F)ncc2-c2cnc(NCc3c(F)ccc4c3CCO4)n3cnc(c23)C1=O.CS(=O)(=O)O
- Crystalline form results ([1]; anti-solvent method, good solvent DCM/MeOH = 2-1 (20 mg/mL), anti-solvent Methyl acetate, room temperature overnight): No precipitation
- Crystalline form results ([1]; anti-solvent method, good solvent DMF (50 mg/mL), anti-solvent Acetonitrile, room temperature overnight): Crystalline form A
- Crystalline form results ([1]; anti-solvent method, good solvent DMF (50 mg/mL), anti-solvent Dimethyl tetrahydrofuran, room temperature overnight): No precipitation
- Crystalline form results ([1]; anti-solvent method, good solvent DMF (50 mg/mL), anti-solvent Methyl acetate, room temperature overnight): Dissociation into a free base
- Crystalline form results ([1]; anti-solvent method, good solvent DMF (50 mg/mL), anti-solvent n-heptane, room temperature overnight): No precipitation
- Crystalline form results ([1]; anti-solvent method, good solvent MeOH (10 mg/mL), anti-solvent Acetonitrile, room temperature overnight): No precipitation
- Crystalline form results ([1]; anti-solvent method, good solvent MeOH (10 mg/mL), anti-solvent Dimethyl tetrahydrofuran, room temperature overnight): No precipitation
- Crystalline form results ([1]; anti-solvent method, good solvent MeOH (10 mg/mL), anti-solvent Methyl acetate, room temperature overnight): No precipitation
- Crystalline form results ([1]; anti-solvent method, good solvent MeOH (10 mg/mL), anti-solvent n-heptane, room temperature overnight): No precipitation
- Crystalline form results ([1]; anti-solvent method, good solvent NMP (50 mg/mL), anti-solvent Acetonitrile, room temperature overnight): Presumably an NMP solvate
- Crystalline form results ([1]; anti-solvent method, good solvent NMP (50 mg/mL), anti-solvent Dimethyl tetrahydrofuran, room temperature overnight): Presumably an NMP solvate
- Crystalline form results ([1]; anti-solvent method, good solvent NMP (50 mg/mL), anti-solvent Ethyl acetate, room temperature overnight): Dissociation into a free base
- Crystalline form results ([1]; anti-solvent method, good solvent NMP (50 mg/mL), anti-solvent Methyl acetate, room temperature overnight): Presumably an NMP solvate
- Crystalline form results ([1]; anti-solvent method, good solvent NMP (50 mg/mL), anti-solvent Tert-butyl methyl ether, room temperature overnight): Presumably an NMP solvate
- Crystalline form results ([1]; anti-solvent method, good solvent NMP (50 mg/mL), anti-solvent n-heptane, room temperature overnight): Presumably an NMP solvate
- Crystalline form results ([1]; gas-liquid diffusion method, good solvent DMF (50 mg/mL), anti-solvent 2-MeTHF, room temperature): No precipitation
- Crystalline form results ([1]; gas-liquid diffusion method, good solvent DMF (50 mg/mL), anti-solvent ACN, room temperature): No precipitation
- Crystalline form results ([1]; gas-liquid diffusion method, good solvent DMF (50 mg/mL), anti-solvent EtOAc, room temperature): No precipitation
- Crystalline form results ([1]; gas-liquid diffusion method, good solvent DMF (50 mg/mL), anti-solvent FA, room temperature): No precipitation
- Crystalline form results ([1]; gas-liquid diffusion method, good solvent DMF (50 mg/mL), anti-solvent Heptane, room temperature): No precipitation
- Crystalline form results ([1]; gas-liquid diffusion method, good solvent DMF (50 mg/mL), anti-solvent MTBE, room temperature): No precipitation
- Crystalline form results ([1]; gas-liquid diffusion method, good solvent MeOH (10 mg/mL), anti-solvent 2-MeTHF, room temperature): No precipitation
- Crystalline form results ([1]; gas-liquid diffusion method, good solvent MeOH (10 mg/mL), anti-solvent ACN, room temperature): No precipitation
- Crystalline form results ([1]; gas-liquid diffusion method, good solvent MeOH (10 mg/mL), anti-solvent FA, room temperature): No precipitation
- Crystalline form results ([1]; gas-liquid diffusion method, good solvent MeOH (10 mg/mL), anti-solvent Heptane, room temperature): No precipitation
- Crystalline form results ([1]; gas-liquid diffusion method, good solvent NMP (50 mg/mL), anti-solvent 2-MeTHF, room temperature): Possibly an NMP solvate
- Crystalline form results ([1]; gas-liquid diffusion method, good solvent NMP (50 mg/mL), anti-solvent ACN, room temperature): Possibly an NMP solvate
- Crystalline form results ([1]; gas-liquid diffusion method, good solvent NMP (50 mg/mL), anti-solvent EtOAc, room temperature): Dissociation into a free base
- Crystalline form results ([1]; gas-liquid diffusion method, good solvent NMP (50 mg/mL), anti-solvent FA, room temperature): Possibly an NMP solvate
- Crystalline form results ([1]; gas-liquid diffusion method, good solvent NMP (50 mg/mL), anti-solvent Heptane, room temperature): Possibly an NMP solvate
- Crystalline form results ([1]; gas-liquid diffusion method, good solvent NMP (50 mg/mL), anti-solvent MTBE, room temperature): Possibly an NMP solvate
- Crystalline form results ([1]; slow volatilization method, solvent DCM/MeOH = 2-1, room temperature): Crystalline form B
- Crystalline form results ([1]; slow volatilization method, solvent EtOH/EA = 2-1, room temperature): Crystalline form A
- Crystalline form results ([1]; slow volatilization method, solvent EtOH, room temperature): Crystalline form B
- Crystalline form results ([1]; slow volatilization method, solvent MeOH/FA = 2-1, room temperature): Crystalline form B
- Crystalline form results ([1]; slow volatilization method, solvent MeOH, room temperature): Crystalline form A
- Crystalline form results ([1]; solvent ACN—H2O 1-1, initial crystalline form A of methanesulfonate salt): Crystalline form A
- Crystalline form results ([1]; solvent H2O, initial crystalline form A of methanesulfonate salt): Crystalline form A
- Crystalline form results ([1]; solvent MeOH—H2O 1-1, initial crystalline form A of methanesulfonate salt): Crystalline form A

Compound: CC(C)N1Cc2cc(C(F)(F)F)ncc2-c2cnc(NCc3c(F)ccc4c3CCO4)n3cnc(c23)C1=O.Cl [Crystalline form A of hydrochloride salt]
- TRS(%) ([2]; 40° C./75RH %-5 d, open storage): 0.30%
- TRS(%) ([2]; 40° C./75RH %- 10 d, open storage): 0.28%
- TRS(%) ([2]; 40° C./75RH %- 30 d, open storage): 0.28%
- TRS(%) ([2]; 60° C.-5 d, open storage): 0.28%
- TRS(%) ([2]; 60° C.-10 d, open storage): 0.34%
- TRS(%) ([2]; 60° C.-30 d, open storage): 0.27%
- TRS(%) ([2]; Initial, TRS = total impurity content, HPLC): 0.31%
- TRS(%) ([2]; RT/75% RH 7 d, open storage): 0.26%
- TRS(%) ([2]; RT/75% RH 10 d, open storage): 0.26%
- TRS(%) ([2]; RT/75% RH 30 d, open storage): 0.37%
- TRS(%) ([2]; RT/90RH %-5 d, open storage): 0.28%
- TRS(%) ([2]; RT/90RH %-10 d, open storage): 0.26%
- TRS(%) ([2]; RT/90RH %-30 d, open storage): 0.27%

Compound: CC(C)N1Cc2cc(C(F)(F)F)ncc2-c2cnc(NCc3c(F)ccc4c3CCO4)n3cnc(c23)C1=O
- Crystalline form results 50° C. [1, 4]: 1,4-dioxane solvate
- Crystalline form results Room temperature [1, 4]: 1,4-dioxane solvate

Compound: CC(C)N1Cc2cc(C(F)(F)F)ncc2-c2cnc(NCc3c(F)ccc4c3CCO4)n3cnc(c23)C1=O.O=S(=O)(O)O [Sulfate Crystalline form A]
- Evaluation results: hygroscopicity [3]: Slight hygroscopicity

Compound: CC(C)N1Cc2cc(C(F)(F)F)ncc2-c2cnc(NCc3c(F)ccc4c3CCO4)n3cnc(c23)C1=O.Cl
- Crystalline form results ([1]; solvent 1,4-dioxane, suspension, 40° C., 3 days, from crystalline form A of hydrochloride salt): Crystalline form A of hydrochloride salt
- Crystalline form results ([1]; solvent 88% acetone, suspension, 40° C., 3 days, from crystalline form A of hydrochloride salt): Crystalline form B
- Crystalline form results ([1]; solvent ACN, suspension, 40° C., 3 days, from crystalline form A of hydrochloride salt): Crystalline form A of hydrochloride salt
- Crystalline form results ([1]; solvent Acetone, suspension, 40° C., 3 days, from crystalline form A of hydrochloride salt): Crystalline form A of hydrochloride salt
- Crystalline form results ([1]; solvent EtOAc, suspension, 40° C., 3 days, from crystalline form A of hydrochloride salt): Crystalline form A of hydrochloride salt
- Crystalline form results ([1]; solvent EtOH, suspension, 40° C., 3 days, from crystalline form A of hydrochloride salt): Ethanol solvate of hydrochloride salt
- Crystalline form results ([1]; solvent EtOH—H2O = 3-1, suspension, 40° C., 3 days, from crystalline form A of hydrochloride salt): Crystalline form A
- Crystalline form results ([1]; solvent H2O, suspension, 40° C., 3 days, from crystalline form A of hydrochloride salt): Crystalline form A of hydrochloride salt
- Crystalline form results ([1]; solvent IPA, suspension, 40° C., 3 days, from crystalline form A of hydrochloride salt): Isopropanol solvate of hydrochloride salt
- Crystalline form results ([1]; solvent MeOH, suspension, 40° C., 3 days, from crystalline form A of hydrochloride salt): Partial dissociation into crystalline form A
- Crystalline form results ([1]; solvent MeOH—H2O = 3-1, suspension, 40° C., 3 days, from crystalline form A of hydrochloride salt): Crystalline form A
- Crystalline form results ([1]; solvent Toluene, suspension, 40° C., 3 days, from crystalline form A of hydrochloride salt): Crystalline form A of hydrochloride salt
- Crystalline form results ([1]; solvent n-butanol, suspension, 40° C., 3 days, from crystalline form A of hydrochloride salt): Crystalline form A of hydrochloride salt
